In PubChem BioAssay AID330 (DTP/NCI, 2004):
Values joined by “and” are separate entries in the source; they are usually repeats but may differ in a detail not shown here. Identical values can stand only once. Inconclusive results and toxic doses are left out. The calls were made as follows: active = survival T/C of 150% or more; inactive = T/C below 125% in these data.

Tested on: P388 leukemia ip, CD2F1 mice, survival T/C
Experiment: NCI In Vivo Anticancer Drug Screen. Data for tumor model P388 Leukemia (intraperitoneal) in CD2F1 (CDF1) mice
Conditions: endpoint: median survival time, higher = longer survival
Outline: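 Mice carrying the transplanted tumor received test compound or vehicle. Survival was recorded in each group, and the value is the treated-group measurement divided by that of the vehicle-treated control group.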

[1] = dose: 100.0 mg/kg/injection, schedule: Q01DX009 (ip), vehicle: saline
[2] = dose: 200.0 mg/kg/injection, schedule: Q01DX009 (ip), vehicle: saline

Measured: T/C

N#Cc1cccc(/C=C\C(=O)c2ccccc2)c1
inactive: dose: 50.0 mg/kg/injection, schedule: Q01DX009 (ip), vehicle: saline 88 % of control | [1] 100 % of control | [2] 92 % of control

CC12CCC3c4ccc(OP(=O)(N5CC5)N5CC5)cc4CCC3C1CCC2O (stereo unspecified)
inactive: dose: 12.5 mg/kg/injection, schedule: Q01DX009 (ip), vehicle: saline with Tween-80 96 % of control and 97 % of control | dose: 25.0 mg/kg/injection, schedule: Q01DX009 (ip), vehicle: saline with Tween-80 110 % of control and 96 % of control | dose: 50.0 mg/kg/injection, schedule: Q01DX009 (ip), vehicle: saline with Tween-80 100 % of control and 92 % of control | dose: 100.0 mg/kg/injection, schedule: Q01DX009 (ip), vehicle: saline with Tween-80 115 % of control

CC1(C)N=C(N)N=C(N)N1c1cccc(CCCCc2cccc(S(=O)(=O)F)c2)c1
inactive: dose: 3.9 mg/kg/injection, schedule: Q04DX003 (ip), vehicle: saline with Tween-80 122 % of control | dose: 25.0 mg/kg/injection, schedule: Q04DX003 (ip), vehicle: saline with Tween-80 95 % of control | dose: 50.0 mg/kg/injection, schedule: Q04DX003 (ip), vehicle: saline with Tween-80 90 % of control

N#CCCCCCCCCCCCC1C=CCC1 (stereo unspecified)
inactive: dose: 100.0 mg/kg/injection, schedule: Q01DX001 (ip), vehicle: saline 100 % of control | dose: 200.0 mg/kg/injection, schedule: Q01DX001 (ip), vehicle: saline 98 % of control | dose: 400.0 mg/kg/injection, schedule: Q01DX001 (ip), vehicle: saline 100 % of control

CCN(CC)CC1(C)NN=C2C(n3cccc3)=CC=CN21 (stereo unspecified)
inactive: dose: 60.0 mg/kg/injection, schedule: Q01DX005 (ip), vehicle: saline 104 % of control | dose: 120.0 mg/kg/injection, schedule: Q01DX005 (ip), vehicle: saline 100 % of control

C[C@]12C=CC(=O)C(O)=C1CC[C@@H]1[C@@H]2CC[C@]2(C)OC(=O)CC[C@@H]12
inactive: dose: 5.5 mg/kg/injection, schedule: Q01DX005 (ip), vehicle: Klucel (hydroxypropylcellulose) (HPC) 106 % of control | dose: 11.0 mg/kg/injection, schedule: Q01DX005 (ip), vehicle: Klucel (hydroxypropylcellulose) (HPC) 106 % of control | dose: 22.0 mg/kg/injection, schedule: Q01DX005 (ip), vehicle: Klucel (hydroxypropylcellulose) (HPC) 101 % of control | dose: 44.0 mg/kg/injection, schedule: Q01DX005 (ip), vehicle: Klucel (hydroxypropylcellulose) (HPC) 106 % of control | dose: 88.0 mg/kg/injection, schedule: Q01DX005 (ip), vehicle: Klucel (hydroxypropylcellulose) (HPC) 106 % of control | dose: 176.0 mg/kg/injection, schedule: Q01DX005 (ip), vehicle: Klucel (hydroxypropylcellulose) (HPC) 107 % of control

COc1ccc(OC)c(C(=O)C=C(C(F)(F)F)C(F)(F)F)c1
inactive: dose: 25.0 mg/kg/injection, schedule: Q01DX009 (ip), vehicle: other 120 % of control | dose: 50.0 mg/kg/injection, schedule: Q04DX003 (ip), vehicle: other 113 % of control | dose: 66.0 mg/kg/injection, schedule: Q04DX003 (ip), vehicle: other 109 % of control | dose: 100.0 mg/kg/injection, schedule: Q01DX009 (ip), vehicle: other 95 % of control | dose: 100.0 mg/kg/injection, schedule: Q04DX003 (ip), vehicle: other 109 % of control | dose: 150.0 mg/kg/injection, schedule: Q04DX003 (ip), vehicle: other 113 % of control

N#Cc1cccc(C(N)=O)c1C(N)=O
inactive: dose: 50.0 mg/kg/injection, schedule: Q01DX005 (ip), vehicle: saline with Tween-80 104 % of control | dose: 100.0 mg/kg/injection, schedule: Q01DX005 (ip), vehicle: saline with Tween-80 98 % of control | dose: 200.0 mg/kg/injection, schedule: Q01DX005 (ip), vehicle: saline with Tween-80 95 % of control

Cc1ncc(CN2CSC(CCO)C2C)c(N)n1 (stereo unspecified)
inactive: dose: 60.0 mg/kg/injection, schedule: Q01DX005 (ip), vehicle: Klucel (hydroxypropylcellulose) (HPC) 100 % of control | dose: 120.0 mg/kg/injection, schedule: Q01DX005 (ip), vehicle: Klucel (hydroxypropylcellulose) (HPC) 106 % of control | dose: 240.0 mg/kg/injection, schedule: Q01DX005 (ip), vehicle: Klucel (hydroxypropylcellulose) (HPC) 105 % of control

Cc1cc2c(c(O)cc(=O)n2Cc2ccccc2)c(=O)n1Cc1ccccc1
inactive: dose: 50.0 mg/kg/injection, schedule: Q01DX005 (ip), vehicle: Klucel (hydroxypropylcellulose) (HPC) 102 % of control | dose: 100.0 mg/kg/injection, schedule: Q01DX005 (ip), vehicle: Klucel (hydroxypropylcellulose) (HPC) 94 % of control | dose: 200.0 mg/kg/injection, schedule: Q01DX005 (ip), vehicle: Klucel (hydroxypropylcellulose) (HPC) 100 % of control

CCOC(=O)CC(=O)C(C)(OCC)OCC
active: [1] 157 % of control | [2] 190 % of control

c1ccc2c(c1)ccc1cc3cccc[n+]3cc12
inactive: dose: 0.5 mg/kg/injection, schedule: Q01DX009 (ip), vehicle: saline 92 % of control | dose: 1.0 mg/kg/injection, schedule: Q01DX009 (ip), vehicle: saline 103 % of control | dose: 2.0 mg/kg/injection, schedule: Q01DX009 (ip), vehicle: saline 92 % of control
